In patent US20260325500A1, “METHODS AND COMPOSITIONS FOR TREATING ACUTE STRESS DISORDER” (BioXcel Therapeutics, Inc., priority 2022, published 2026):
Counter-ions that a name gives are not always drawn. Marks after values point to notes of the source that are not given here.

Tests used:
[1] = test system: CCK-4 induced panic anxiety in rats; assay: Elevated plus maze, CCK-4 induced panic anxiety (Example 8); assay type: in vivo, Wistar rats; details: for Entries, % increase as compared to CCK-4/Vehicle / Entries, Mean ± SEM / Time, % increase as compared to CCK-4/Vehicle / Time, Mean ± SEM: CCK4 0.2 mg/kg i.p.
Excerpt: Rationale: In the past two decades panic induction with cholecystokinin-tetrapeptide (CCK-4) as an experimental model of human anxiety has become a focus of intensive research. CCK-4 is a synthetic analog of the endogenous neuropeptide cholecystokinin (CCK), which has been found in different brain regions. Particularly, high concentrations of CCK have been detected in regions that have been implicated in the mediation of panic attacks such as the cerebral cortex, amygdala, hippocampus, and brainstem nuclei. CCK-4 dose dependently induces panic attacks in healthy controls. Thus, CCK-4 has been postulated to fulfil the criteria for an ideal and valid panicogenic agent. […] Therefore, the CCK-4 challenge paradigm can serve as a useful tool to evaluate the anti-panic potential of novel anxiolytic compounds.
Animal groups: Male Wistar Rats were purchased at a body weight of 150 g and reached a body weight of about 220 g at the time of use. Animals were distributed in 6 different experimental groups with 12 […] per group as illustrated in Table 11. Each experimental group was also coded so that the experimenter became unaware of the true experimental group at the time EPM trial.
Study drugs: All compounds/drugs were prepared in saline (0.9% NaCl).
CCK-4 was prepared at a solution of 0.2 mg/ml which when injected i.p. at a dosage volume of 1 ml/kg results in a dose of 0.2 mg/kg.
Diazepam was prepared at a solution of 1 mg/ml which when injected i.p. at a dosage volume of 1 ml/kg results in a dose of 1 mg/kg.
Latrepirdine was prepared at concentrations of 2.5, 7.5, 25 and 37.5 mg/ml which when injected i.m. at a volume of 100 μL for a rat of 250 g results in doses of 1, 3, 10 and 15 mg/kg respectively.
Study design and dosing: The rats were randomly assigned to one of the different experimental groups. Each animal was identified by its group name, cage number, series (day) of experiment, and a number (from 1 to 4) written with permanent ink on its tail. They were handled by an experimenter for about 3 min each day during 1 week prior to the day of EPM trial.
The apparatus is a PVC maze covered with Plexiglas and subdivided into four equal exploratory arms (40×10 cm), which are all interconnected by a small platform (10×10 cm). The apparatus is placed 65 cm above the floor. Two arms are opened, and two others are closed with wall (high: 10 cm).
After compound administration, rat is placed on the platform opposite a closed arm. The number of entries and the time spent in each arm are recorded during a 5 min period. The animal is considered as entered in an arm when it places its four paws in the arm.
Statistical analysis: Data was analyzed using One-Way ANOVA followed by multiple comparison with Dunnett's post-hoc test. All statistical analyses were performed using GraphPad Prism software package (Version 9) and p value below 0.05 was considered as significant.

[2] = test system: mouse behavior (SmartCube signature); assay: SmartCube system behavioral classification (Example 6); assay type: in vivo, Male C57/B16 mice; details: IP
Excerpt: Dexmedetomidine and latrepirdine have anti-psychotic effects, when tested in the SmartCube® system (Psychogenics, Inc., Paramus, NJ; See also U.S. Pat. No. 7,580,798 incorporated herein by reference in its entirety). This system uses features derived from mouse behavioral data to first, classify mice on compound versus vehicle. This measure indicates how well the system can differentiate between a mouse on compound versus a mouse on vehicle. Secondly, by comparing the features to a proprietary reference database of behavioral feature sets that are linked to classes of marketed drugs known to treat neuro-psychiatric symptoms SmartCube® assigns a signature to the behavior. Thus, the system can be used as a model to identify both the activity and the psychiatric effect of a compound by comparing the effects of the compounds against drugs with known validated effects.
By comparing the responses of animals to known drugs, the test drug can be categorized according to its function; for example, hallucinogen, anxiogenic, analgesic, cognitive enhancer, psychostimulant, mood stabilizer, high dose anti-psychotic, anti-psychotic, sedative/hypnotic, anxiolytic, high dose antidepressant, antidepressant.
Once all features are extracted from the raw data through an automated pipeline, proprietary bioinformatics algorithms are used to decorrelate groups of features and find the combination of values that best separate different groups of interest. For each compound, at each dose, they system provides a probability that the drug is active and breaks down such putative activity into the different classes of interest.
SmartCube reference data used herein include anti-psychotics and anti-depressants tested at several dose ranges. “Anti-psychotic” versus “high dose anti-psychotic” as indicated in the legend, reflects the notion that anti-psychotics reference data is dose dependent. Anti-psychotics, when administered at higher doses, can engage additional receptor systems, and thus affect mouse behavior differently. The same applies for different doses of anti-depressants.
Animals: Male C57/B16 mice (N=12 per group) from Taconic Laboratories were used. Upon receipt, mice were group-housed in OPTI mouse ventilated cages with 4 mice per cage. Mice were acclimated to the colony room for at least one week prior to test and subsequently tested at approximately 8-9 weeks of age. All animals were examined, handled, and weighed prior to initiation of the study to assure adequate health and suitability and to minimize non-specific stress associated with manipulation.
All compounds tested were formulated in NP3 (vehicle solution): 5% Pharmasolve; 30% P3 (1:1:1 PEG200: PEG400: propylene glycol); 65% saline; pH is 5.1-6.
Test groups were: • Vehicle: NP3 • Dexmedetomidine at 0.005 and 0.010 mg/kg • Latrepirdine at 1 and 10 mg/kg • Dexmedetomidine and latrepirdine combinations (in mg/kg): 0.005/1.0; 0.005/10; 0.010/1.0; 0.010/10
Test compounds were injected intraperitoneally (IP) for 15 min before animals were placed in SmartCube for assessment.
Antipsychotic: SmartCube classifies the mouse behavior with test compound as similar to treatment with marketed anti-psychotics at therapeutically relevant doses.
High Dose Antipsychotic: SmartCube classifies the mouse behavior on test compound as similar to treatment with marketed anti-psychotics at doses that are considered as high therapeutically. High doses of anti-psychotics often cause sedation.
The results for the class analyses are presented as standardized bar charts with percentages that sum to 100 for each dose. The percentage indicates the probability the classifier can differentiate between the vehicle group and test group. The pattern indicates what class signature was assigned.

[3] = 1-15 mg/kg i.m., CCK-4 treated rats

In the case of `Cc1ccc2c(c1)c1c(n2CCc2ccc(C)nc2)CCN(C)C1` [latrepirdine dihydrochloride hydrate], the “Entries, % increase as compared to CCK-4/Vehicle” value (“Entries, % increase” below) ([1]; 1 mg/kg i.m.) is reported as “(47.37) %”, the “Entries, Mean ± SEM” value ([1]; 1 mg/kg i.m.) is reported as 2.8 ± 0.4 n and the “Time, % increase as compared to CCK-4/Vehicle” value (shortened to “Time, % increase”) ([1]; 1 mg/kg i.m.) is reported as “(83.33) %”. The “Time, Mean ± SEM” value ([1]; 1 mg/kg i.m.) was 24.2 ± 4.7 s, the “Entries, % increase” value ([1]; 3 mg/kg i.m.) was “(31.58) %” and the “Entries, Mean ± SEM” value ([1]; 3 mg/kg i.m.) was 2.5 ± 0.2 n. The “Time, % increase” value ([1]; 3 mg/kg i.m.) was “(98.48) %”, the “Time, Mean ± SEM” value ([1]; 3 mg/kg i.m.) was 26.2 ± 3.3 s and the “Entries, % increase” value ([1]; 10 mg/kg i.m.) was “(73.68) * %”. For the same compound, the “Entries, Mean ± SEM” value ([1]; 10 mg/kg i.m.) was 3.3 ± 0.3 n, the “Time, % increase” value ([1]; 10 mg/kg i.m.) was “(158.33) ** %” and the “Time, Mean ± SEM” value ([1]; 10 mg/kg i.m.) was 34.1 ± 3.4 s. For the same compound, the “Entries, % increase” value ([1]; 15 mg/kg i.m.) was “(126.32) *** %”, the “Entries, Mean ± SEM” value ([1]; 15 mg/kg i.m.) was 4.3 ± 0.4 n and the “Time, % increase” value ([1]; 15 mg/kg i.m.) was “(266.67) **** %”. For the same compound, the “Time, Mean ± SEM” value ([1]; 15 mg/kg i.m.) was 48.4 ± 5.3 s.

`Cc1ccc2c(c1)c1c(n2CCc2ccc(C)nc2)CCN(C)C1` [latrepirdine, 2,8-dimethyl-5-[2-(6-methylpyridin-3-yl)ethyl]-3,4-dihydro-1H-pyrido[4,3-b]indole] was tested, and the “dose with the greatest effect on entries and time in open arms” value [1, 3] was 15 mg/kg, the “number of entries to and time spent in the open arms, significance” value [1, 3] was “significant at the doses of 10 and 15 mg/kg” and the SmartCube signature ([2]; 1 and 10 mg/kg) was “antipsychotic signature”. The SmartCube total activity ([2]; latrepirdine 1.0 mg/kg) was 20% and the SmartCube total activity ([2]; latrepirdine 10 mg/kg) was 80%.
